# Test results from patent publication EP0303243A2, “Use of atrial natriuretic factor (ANF), fragments and analogues thereof, for the treatment of cardiac disorders” (HOECHST AKTIENGESELLSCHAFT, priority 1987, dated 1989).
# Non-standard residues stand in square brackets, D forms with d. Residues, ends and D or L forms follow the SMILES beside them.
# System: isolierten arbeitenden Rattenherzen
# Assay: Isolated working rat heart (Langendorff) with coronary occlusion (ischaemia) and reperfusion
# Design: species or system Ratten
# Conditions: 10^-7 mol/l; for Myokardiale Gewebsspiegel von ATP / Myokardiale Gewebsspiegel von Glykogen / Myokardiale Gewebsspiegel von KP / Myokardiale Gewebsspiegel von Laktat: ischaemic hearts perfused for 65 Minuten; for KK / LDH / Laktat: coronary venous effluent
# Excerpt: Die erfindungsgemäßen Verbindungen verbessern arrhythmische Zustände, die Hämodynamik und den Stoffwechsel des Herzens. Ihre Wirkung wurde an Ratten im Test nach Langendorff geprüft (0. Langendorff "Untersuchungen am überlebenden Säugetierherzen", Pflügers Archiv […], Bd. 61, 291 - 332; H. Bardenheuer, J. Schrader "Relationships between myocardial oxygen consumption, coronary flow and adenosin release in an improved isolated working heart preparation of guinea pigs", Circulation Research, 1983, Bd. 51, 263 - 271
# Die Koronargefäße der isolierten arbeitenden Rattenherzen wurden retrograd über die Aorta mit Krebs-Henseleit-Lösung perfundiert. In den linken Ventrikel wurde ein Ballon verbracht, der mit einem künstlichen "systemischen" Kreislauf verbunden war. Die Druck-Volumenarbeit wurde erreicht, indem aus dem Ballon in den systemischen Kreislauf Kochsalzlösung gepumpt wurde. Die Herzen wurden mit einem Druck von 65 mmHg perfundiert, die Nachlast betrug ebenfalls 65 mmHg und die Vorlast 7,4 mmHg. In einer Kontrollperfusionsperiode wurden die Herzen über 20 Minuten perfundiert. Danach wurde die linke Koronararterie in der Nähe ihres Austritts aus der Aorta mit einem Clip verschlossen. Nach 15 Minuten (ischämische Periode) wurde der Verschluß geöffnet und es schloß sich eine 30 minütige Reperfusionsphase an. Während dieses experimentellen Zeitverlaufs untersuchten wir die Effekte des ANF auf kardiodynamische Parameter, wie linker Ventrikeldruck (LVD), dp/dt max, Herzfrequenz (HF), Koronarfluß (KorF), myokardialer Sauerstoffverbrauch (MSV), auf Enzyme im koronarvenösen Effluat wie Laktat dehydrogenase (LDH) und Kreatinkinase (KK) sowie Laktat, auf metabolische Parameter im Myokard wie Laktat, Glykogen, Adenosintriphosphat (ATP) und Kreatinphosphat (KP) und auf Reperfusionsarrhythmien mittels EKG.
# Eine Substanz wird dann als wirksam bezeichnet, wenn nach dem Abklemmen der linken Herzkoronararterie und anschließender Reperfusion keine Arrhythmien - im Vergleich zur unbehandelten Kontrolle - entstehen, wobei das Kammerflimmern (KF) einen meßbaren Parameter darstellt.
# Die erfindungsgemäßen Verbindungen wurden in den entsprechenden Konzentrationen vor und nach Okklusion der linken Koronararterie perfundiert (n:10); (n:4). Kontrollherzen wurden mit Krebs-Henseleit-Lösung perfundiert (n:10).
compound,measurement,setting,value
CC[C@H](C)[C@@H]1NC(=O)[C@H](CCCNC(=N)N)NC(=O)[C@@H](CC(C)C)NC(=O)[C@H]([C@@H](C)CC)NC(=O)[C@@H](CCCNC(=N)N)NC1=O [cyclo-(D-Arg-Ile-D-Leu-Arg-Ile)] (cyclo(I[dL]RI[dR])),Myokardiale Gewebsspiegel von ATP,,"* 13,25 ± 0,41 µmol/g Trockengewicht"
same,Myokardiale Gewebsspiegel von Glykogen,,"* 121,09 ± 2,97 µmol/g Trockengewicht"
same,Myokardiale Gewebsspiegel von KP,,"* 15,22 ± 0,83 µmol/g Trockengewicht"
same,Myokardiale Gewebsspiegel von Laktat,,"* 3,87 ± 0,46 µmol/g Trockengewicht"
same,HF,Ischämische Periode,299 ± 7 Schläge/Min
same,KorF,Ischämische Periode,"* 8,7 ± 0,4 ml/Min/g"
same,LVD,Ischämische Periode,* 49 ± 4 mmHg
same,LVdp/dtmax,Ischämische Periode,* 1784 ± 109 mmHg • sec^-1
same,HF,Kontrollperfusionsperiode,306 ± 7 Schläge/Min
same,KorF,Kontrollperfusionsperiode,"12,3 ± 0,8 ml/Min/g"
same,LVD,Kontrollperfusionsperiode,68 ± 3 mmHg
same,LVdp/dtmax,Kontrollperfusionsperiode,2589 ± 101 mmHg • sec^-1
same,HF,Reperfusionsperiode,284 ± 10 Schläge/Min
same,KorF,Reperfusionsperiode,"* 12,9 ± 0,9 ml/Min/g"
same,LVD,Reperfusionsperiode,48 ± 6 mmHg
same,LVdp/dtmax,Reperfusionsperiode,1724 ± 111 mmHg • sec^-1
same,KK,Ischämische Periode,* 32 ± 5 mU/min/g
same,LDH,Ischämische Periode,* 22 ± 4 mU/min/g
same,Laktat,Ischämische Periode,"* 0,24 ± 0,03 µmol/min/g"
same,KK,Kontrollperfusionsperiode,32 ± 4 mU/min/g
same,LDH,Kontrollperfusionsperiode,29 ± 5 mU/min/g
same,Laktat,Kontrollperfusionsperiode,"* 0,18 ± 0,04 µmol/min/g"
same,KK,Reperfusionsperiode,* 20 ± 4 mU/min/g
same,LDH,Reperfusionsperiode,* 14 ± 3 mU/min/g
same,Laktat,Reperfusionsperiode,"* 0,16 ± 0,05 µmol/min/g"
human ANF-(103-126) [h-ANF(103-126)],Myokardiale Gewebsspiegel von ATP,,"* 11,01 ± 0,59 µmol/g Trockengewicht"
same,Myokardiale Gewebsspiegel von Glykogen,,"* 113,15 ± 3,74 µmol/g Trockengewicht"
same,Myokardiale Gewebsspiegel von KP,,"* 13,89 ± 0,99 µmol/g Trockengewicht"
same,Myokardiale Gewebsspiegel von Laktat,,"* 4,03 ± 0,62 µmol/g Trockengewicht"
same,HF,Ischämische Periode,301 ± 5 Schläge/Min
same,KorF,Ischämische Periode,"* 9,0 ± 0,2 ml/Min/g"
same,LVD,Ischämische Periode,* 45 ± 3 mmHg
same,LVdp/dtmax,Ischämische Periode,* 1663 ± 117 mmHg • sec^-1
same,MSV,Ischämische Periode,"* 11,5 ± 0,3 ml/min/100 g"
same,HF,Kontrollperfusionsperiode,298 ± 4 Schläge/Min
same,KorF,Kontrollperfusionsperiode,"11,1 ± 0,2 ml/Min/g"
same,LVD,Kontrollperfusionsperiode,* 55 ± 2 mmHg
same,LVdp/dtmax,Kontrollperfusionsperiode,* 2125 ± 91 mmHg • sec^-1
same,MSV,Kontrollperfusionsperiode,"* 14,5 ± 0,3 ml/min/100 g"
same,HF,Reperfusionsperiode,280 ± 4 Schläge/Min
same,KorF,Reperfusionsperiode,"* 11,7 ± 0,3 ml/Min/g"
same,LVD,Reperfusionsperiode,* 37 ± 2 mmHg
same,LVdp/dtmax,Reperfusionsperiode,* 1385 ± 91 mmHg • sec^-1
same,MSV,Reperfusionsperiode,"14,7 ± 0,4 ml/min/100 g"
same,KK,Ischämische Periode,* 30 ± 2 mU/min/g
same,LDH,Ischämische Periode,* 20 ± 2 mU/min/g
same,Laktat,Ischämische Periode,"* 0,18 ± 0,01 µmol/min/g"
same,KK,Kontrollperfusionsperiode,28 ± 3 mU/min/g
same,LDH,Kontrollperfusionsperiode,21 ± 2 mU/min/g
same,Laktat,Kontrollperfusionsperiode,"* 0,13 ± 0,01 µmol/min/g"
same,KK,Reperfusionsperiode,* 18 ± 2 mU/min/g
same,LDH,Reperfusionsperiode,* 12 ± 1 mU/min/g
same,Laktat,Reperfusionsperiode,"* 0,12 ± 0,04 µmol/min/g"
same,KF,"ventricular fibrillation (Kammerflimmern), Reperfusionsperiode","* 2,7 ± 0,9 Min"
